Experimental data as given in PubChem BioAssay AID248 (DTP/NCI, 2004).
“And” between values parts separate entries of the source, which are not always exact repeats. Equal values may be shown once. Toxic doses and inconclusive results are not listed.

Tested on: L1210 leukemia ip in BDF1 mice, survival T/C
Assay: NCI In Vivo Anticancer Drug Screen. Data for tumor model L1210 Leukemia (intraperitoneal) in B6D2F1 (BDF1) mice
Settings: endpoint: mean survival time, higher = longer survival
Outline: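 Value reflects the ratio of survival in compound-treated mice to survival in vehicle-treated controls, with both groups carrying the same transplanted tumor.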

[1] = dose: 100.0 mg/kg/injection, schedule: Q01DX001 (ip), vehicle: saline
[2] = dose: 200.0 mg/kg/injection, schedule: Q01DX001 (ip), vehicle: saline
[3] = dose: 400.0 mg/kg/injection, schedule: Q01DX001 (ip), vehicle: saline
[4] = dose: 100.0 mg/kg/injection, schedule: Q04DX002 (ip), vehicle: Klucel (hydroxypropylcellulose) (HPC)
[5] = dose: 200.0 mg/kg/injection, schedule: Q04DX002 (ip), vehicle: Klucel (hydroxypropylcellulose) (HPC)
[6] = dose: 400.0 mg/kg/injection, schedule: Q04DX002 (ip), vehicle: Klucel (hydroxypropylcellulose) (HPC)
[7] = dose: 100.0 mg/kg/injection, schedule: Q04DX003 (ip), vehicle: Klucel (hydroxypropylcellulose) (HPC)
[8] = dose: 200.0 mg/kg/injection, schedule: Q04DX003 (ip), vehicle: Klucel (hydroxypropylcellulose) (HPC)
[9] = dose: 400.0 mg/kg/injection, schedule: Q04DX003 (ip), vehicle: Klucel (hydroxypropylcellulose) (HPC)
[10] = dose: 100.0 mg/kg/injection, schedule: Q01DX009 (ip), vehicle: Klucel (hydroxypropylcellulose) (HPC)
[11] = dose: 200.0 mg/kg/injection, schedule: Q01DX009 (ip), vehicle: Klucel (hydroxypropylcellulose) (HPC)
[12] = dose: 400.0 mg/kg/injection, schedule: Q01DX009 (ip), vehicle: Klucel (hydroxypropylcellulose) (HPC)
[13] = dose: 100.0 mg/kg/injection, schedule: Q01DX009 (ip), vehicle: saline
[14] = dose: 100.0 mg/kg/injection, schedule: Q04DX003 (ip), vehicle: saline
[15] = dose: 200.0 mg/kg/injection, schedule: Q01DX009 (ip), vehicle: saline
[16] = dose: 200.0 mg/kg/injection, schedule: Q04DX003 (ip), vehicle: saline
[17] = dose: 400.0 mg/kg/injection, schedule: Q04DX003 (ip), vehicle: saline
[18] = dose: 100.0 mg/kg/injection, schedule: Q01DX001 (ip), vehicle: Klucel (hydroxypropylcellulose) (HPC)
[19] = dose: 200.0 mg/kg/injection, schedule: Q01DX001 (ip), vehicle: Klucel (hydroxypropylcellulose) (HPC)
[20] = dose: 100.0 mg/kg/injection, schedule: Q01DX009 (ip), vehicle: saline with Tween-80
[21] = dose: 100.0 mg/kg/injection, schedule: Q04DX003 (ip), vehicle: saline with Tween-80
[22] = dose: 200.0 mg/kg/injection, schedule: Q01DX009 (ip), vehicle: saline with Tween-80
[23] = dose: 200.0 mg/kg/injection, schedule: Q04DX003 (ip), vehicle: saline with Tween-80
[24] = dose: 400.0 mg/kg/injection, schedule: Q01DX009 (ip), vehicle: saline with Tween-80
[25] = dose: 400.0 mg/kg/injection, schedule: Q04DX003 (ip), vehicle: saline with Tween-80
[26] = dose: 400.0 mg/kg/injection, schedule: Q01DX001 (ip), vehicle: Klucel (hydroxypropylcellulose) (HPC)

For `CC(=O)[C@H]1CC[C@H]2[C@@H]3C[C@H](C)C4=CC(=O)CC[C@]4(C)[C@@]3(F)[C@@H](O)C[C@]12C`, the T/C (dose: 12.5 mg/kg/injection, schedule: Q04DX002 (ip), vehicle: Klucel (hydroxypropylcellulose) (HPC)) was 102 % of control, the T/C (dose: 25.0 mg/kg/injection, schedule: Q04DX002 (ip), vehicle: Klucel (hydroxypropylcellulose) (HPC)) was 105 % of control and the T/C (dose: 50.0 mg/kg/injection, schedule: Q04DX002 (ip), vehicle: Klucel (hydroxypropylcellulose) (HPC)) was 102 % of control. The T/C (dose: 100.0 mg/kg/injection, schedule: Q04DX003 (ip), vehicle: steriod suspending solution) was 96 % of control, the T/C (dose: 200.0 mg/kg/injection, schedule: Q04DX003 (ip), vehicle: steriod suspending solution) was 105 % of control and the T/C (dose: 400.0 mg/kg/injection, schedule: Q04DX003 (ip), vehicle: steriod suspending solution) was 102 % of control.

`CN(C)C1c2ccccc2-c2cccc(C(=O)O)c21` (stereo not given) was tested, and the T/C [1] was 108 % of control, the T/C [2] was 103 % of control and the T/C [3] was 103 % of control.

With `N#CCCN(CCC#N)[N+](=O)[O-]` the T/C (dose: 87.5 mg/kg/injection, schedule: Q01DX009 (ip), vehicle: Klucel (hydroxypropylcellulose) (HPC)) was 97 % of control, the T/C [4] was 98 % of control and the T/C (dose: 100.0 mg/kg/injection, schedule: Q04DX002 (ip), vehicle: saline + alcohol) was 97 % of control. The T/C (dose: 175.0 mg/kg/injection, schedule: Q01DX009 (ip), vehicle: Klucel (hydroxypropylcellulose) (HPC)) was 100 % of control, the T/C [5] was 102 % of control and the T/C (dose: 200.0 mg/kg/injection, schedule: Q04DX002 (ip), vehicle: saline + alcohol) was 105 % of control. The T/C [6] was 87 % of control and the T/C (dose: 400.0 mg/kg/injection, schedule: Q04DX002 (ip), vehicle: saline + alcohol) was 101 % of control.

For `CCCCCCCCCCCCCCCCOc1ccc(C(=O)Nc2ccc(S(=O)(=O)Nc3cccc4ccccc34)cc2)cc1S(=O)(=O)F`, the T/C [7] was 102 % of control, the T/C [8] was 100 % of control and the T/C [9] was 93 % of control.

For `Cc1ccc(S(=O)(=O)Oc2ccc(Cl)cc2)cc1`, the T/C [10] was 102 % of control, the T/C [7] was 105 % of control and the T/C [11] was 98 % of control. The T/C [8] was 97 % of control, the T/C [12] was 102 % of control and the T/C [9] was 101 % of control.

In the case of `O=C1c2ccccc2C2(Br)C(=O)c3ccccc3C12Br` (stereo not given), the T/C [4] is reported as 104 % of control, the T/C [5] is reported as 101 % of control and the T/C [6] is reported as 93 % of control.

For `CCCC1(c2ccccc2)CC(=O)NC1=O` (stereo not given), the T/C [1] was 100 % of control, the T/C [13] was 106 % of control and 107 % of control and the T/C (dose: 100.0 mg/kg/injection, schedule: Q04DX002 (ip), vehicle: saline) was 100 % of control and 108 % of control. The T/C [14] was 103 % of control, the T/C [2] was 97 % of control and the T/C [15] was 117 % of control and 89 % of control. For the same molecule, the T/C (dose: 200.0 mg/kg/injection, schedule: Q04DX002 (ip), vehicle: saline) was 105 % of control and 112 % of control, the T/C [16] was 97 % of control and the T/C [3] was 95 % of control. For the same molecule, the T/C (dose: 400.0 mg/kg/injection, schedule: Q01DX009 (ip), vehicle: saline) was 98 % of control and 86 % of control, the T/C (dose: 400.0 mg/kg/injection, schedule: Q04DX002 (ip), vehicle: saline) was 105 % of control and 108 % of control and the T/C [17] was 97 % of control.

For `COC12C3C=CC4C(C=C3)C4C1C2(Br)Br` (stereo not given), the T/C (dose: 50.0 mg/kg/injection, schedule: Q01DX001 (ip), vehicle: Klucel (hydroxypropylcellulose) (HPC)) was 105 % of control, the T/C [18] was 96 % of control and the T/C [19] was 105 % of control.

With `O=C1CSC(=S)N1c1ccco1` the T/C [13] was 102 % of control, the T/C [14] was 93 % of control and the T/C [15] was 102 % of control. For the same molecule, the T/C [16] was 88 % of control and the T/C [17] was 93 % of control.

For `CC(=O)NC1CCCC2CCCCC21` (stereo not given), the T/C [20] was 94 % of control and 99 % of control, the T/C [21] was 93 % of control and the T/C [22] was 109 % of control and 100 % of control. For the same molecule, the T/C [23] was 94 % of control, the T/C [24] was 103 % of control and the T/C [25] was 94 % of control.

In the case of `CC1CCC(=C(c2ccccc2)c2ccccc2)C(C)N1C` (stereo not given), the T/C (dose: 25.0 mg/kg/injection, schedule: Q01DX009 (ip), vehicle: saline with Tween-80) is reported as 98 % of control, the T/C (dose: 25.0 mg/kg/injection, schedule: Q04DX003 (ip), vehicle: saline with Tween-80) is reported as 107 % of control and the T/C (dose: 50.0 mg/kg/injection, schedule: Q01DX009 (ip), vehicle: saline with Tween-80) is reported as 98 % of control. The T/C (dose: 50.0 mg/kg/injection, schedule: Q04DX003 (ip), vehicle: saline with Tween-80) was 96 % of control, the T/C [20] was 90 % of control and the T/C [21] was 98 % of control and 101 % of control.

With `O=C(OC12CCCC1CC2)c1ccc([N+](=O)[O-])cc1` (stereo not given) the T/C [21] was 91 % of control, the T/C [23] was 103 % of control and the T/C [25] was 100 % of control.

`O=[N+]([O-])c1ccc(/C=N/O)o1` was tested, and the T/C (dose: 10.0 mg/kg/injection, schedule: Q04DX002 (ip), vehicle: Klucel (hydroxypropylcellulose) (HPC)) was 102 % of control, the T/C (dose: 20.0 mg/kg/injection, schedule: Q04DX002 (ip), vehicle: Klucel (hydroxypropylcellulose) (HPC)) was 117 % of control and the T/C (dose: 40.0 mg/kg/injection, schedule: Q04DX002 (ip), vehicle: Klucel (hydroxypropylcellulose) (HPC)) was 104 % of control. The T/C (dose: 50.0 mg/kg/injection, schedule: Q01DX001 (ip), vehicle: saline) was 111 % of control.

For `CC1=NCCN1CCN=C(N)CCl`, the T/C (dose: 12.5 mg/kg/injection, schedule: Q04DX002 (ip), vehicle: saline) was 107 % of control, the T/C (dose: 25.0 mg/kg/injection, schedule: Q01DX009 (ip), vehicle: saline) was 111 % of control and the T/C (dose: 25.0 mg/kg/injection, schedule: Q04DX002 (ip), vehicle: saline) was 91 % of control. For the same molecule, the T/C (dose: 50.0 mg/kg/injection, schedule: Q01DX009 (ip), vehicle: saline) was 101 % of control and the T/C (dose: 50.0 mg/kg/injection, schedule: Q04DX002 (ip), vehicle: saline) was 91 % of control.

For `CCOC(=O)Nc1cc([N+](=O)[O-])ccc1OC`, the T/C [18] was 105 % of control, the T/C [10] was 105 % of control and the T/C [4] was 96 % of control and 104 % of control. The T/C [7] was 101 % of control, the T/C [19] was 100 % of control and the T/C [11] was 108 % of control. For the same molecule, the T/C [5] was 96 % of control and 97 % of control, the T/C [8] was 98 % of control and the T/C [26] was 101 % of control. For the same molecule, the T/C [12] was 102 % of control, the T/C [6] was 96 % of control and 103 % of control and the T/C [9] was 101 % of control.

For `Cc1cc(C)c(N(C)C(=O)CCC(=O)O)c(C)c1Br`, the T/C [18] was 97 % of control, the T/C [10] was 93 % of control and the T/C [19] was 97 % of control. The T/C [11] was 93 % of control and the T/C [26] was 104 % of control.

`CN(C)c1ccc(N=Cc2ccccc2O)cc1.[Co]` was tested, and the T/C (dose: 100.0 mg/kg/injection, schedule: Q01DX001 (ip), vehicle: other) was 90 % of control, the T/C (dose: 200.0 mg/kg/injection, schedule: Q01DX001 (ip), vehicle: other) was 94 % of control and the T/C (dose: 400.0 mg/kg/injection, schedule: Q01DX001 (ip), vehicle: other) was 91 % of control.

For `Cc1cc(Cl)ccc1OC(=O)NC1CCCCC1`, the T/C [4] was 107 % of control, the T/C [5] was 96 % of control and the T/C [6] was 107 % of control.

For `O=C(O)CN1C(=O)CSC1=S`, the T/C [20] was 655 % of control, the T/C [22] was 91 % of control and the T/C [24] was 89 % of control.

With `CC(C)(C)C1CN1C(=S)Nc1ccccc1` (stereo not given) the T/C [7] was 104 % of control, the T/C [8] was 105 % of control and the T/C [9] was 102 % of control.

For `CCCCCCCCCC(=O)Nc1c(C)cccc1C`, the T/C (dose: 100.0 mg/kg/injection, schedule: Q04DX002 (ip), vehicle: saline with Tween-80) was 94 % of control, the T/C (dose: 200.0 mg/kg/injection, schedule: Q04DX002 (ip), vehicle: saline with Tween-80) was 111 % of control and the T/C (dose: 400.0 mg/kg/injection, schedule: Q04DX002 (ip), vehicle: saline with Tween-80) was 94 % of control.
